Data published in ChEMBL document CHEMBL3352440, “Design, synthesis and SAR exploration of tri-substituted 1,2,4-triazoles as inhibitors of the annexin A2-S100A10 protein interaction” (Bioorg Med Chem, 2014).
Calls of active or inactive are those of the source. The calls are words filed in the database; no cut-off is given here.

Biological target: Annexin A2/S100-A10 (Homo sapiens) (UniProt P07355+P60903)
Assay: Inhibition of Annexin A2/Protein S100-A10 protein interaction in human MDA-MB-231 cells by Western blotting based immunoprecipitation assay
Format: cell-based

Chain of Annexin A2/S100-A10 (Homo sapiens) (P07355 2-339 limits assumed): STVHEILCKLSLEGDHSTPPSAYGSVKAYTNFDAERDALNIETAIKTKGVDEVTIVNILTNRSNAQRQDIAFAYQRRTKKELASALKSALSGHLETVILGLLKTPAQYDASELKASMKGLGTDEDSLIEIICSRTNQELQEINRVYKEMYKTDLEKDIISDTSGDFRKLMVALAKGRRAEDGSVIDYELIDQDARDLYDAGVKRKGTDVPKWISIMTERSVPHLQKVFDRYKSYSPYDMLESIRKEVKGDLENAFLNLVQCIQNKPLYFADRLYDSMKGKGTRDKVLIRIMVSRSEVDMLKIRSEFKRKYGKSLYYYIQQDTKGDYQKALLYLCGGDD
Chain of Annexin A2/S100-A10 (Homo sapiens) (P60903 whole entry partner): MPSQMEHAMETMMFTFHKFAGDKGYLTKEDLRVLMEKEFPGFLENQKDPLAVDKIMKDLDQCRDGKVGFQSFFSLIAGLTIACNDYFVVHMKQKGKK

inhibition	Molecule
Active	Ac-MSTVHEILCKLSLE-OH
Active	Cc1cc(C)nc(SCc2nnc(SCC(=O)Nc3ccc(C(C)C)cc3)n2Cc2ccco2)n1
